Experimental data published in patent publication US20180021277A1, “ANTI-VIRULENCE COMPOSITIONS AND METHODS” (priority 2012, published 2018).
Converted amounts (≈) assume the structure as drawn.

Legend:
MRSA USA300 [1] = format: in vivo, mice; details: for improvement of wound healing compared to untreated control: 20 mg/kg on the wound once a day for seven days, wound area day 8; for bacterial burden of the wound vs untreated control: 20 mg/kg once a day for seven days; for bacterial burden of the wound vs untreated control / tissue burden of the wound, average log CFUs ± standard deviation: day 8; for tissue burden of the wound, average log CFUs ± standard deviation: topical twice a day for seven days, cephalothin 30 mg/kg, F19 20 mg/kg, vancomycin 30 mg/kg
AgrA-P3 complex = AgrA-P3 complex (Staphylococcus aureus, UniProt P0A0I7); assay: Electrophoretic mobility shift assay, AgrA with P3 promoter DNA; details: 1 nM P3 DNA, 2 μM AgrA
[2] = Survival of insect larvae given compound in the absence of bacteria; format: in vivo, Galleria Mellonella; details: after 84 h
MRSE Q-15 = format: cell-based, Staphylococcus epidermidis
MRSA USA300 [3] = assay: microbe, parasite or virus in culture; format: cell-based, Staphylococcus aureus; details: for MIC: Staphylococcus aureus, read-out: minimum inhibitory concentration (MIC), With F19 (1 μg/mL)
MRSA USA300 [4] = assay: Murine MRSA bacteremia/sepsis model
[5] = test system: Bacillus anthracis Ames strain; format: cell-based
Streptococcus pyogenes = format: cell-based

AgrA-P3 complex, sequence (P0A0I7 whole entry, one chain of several): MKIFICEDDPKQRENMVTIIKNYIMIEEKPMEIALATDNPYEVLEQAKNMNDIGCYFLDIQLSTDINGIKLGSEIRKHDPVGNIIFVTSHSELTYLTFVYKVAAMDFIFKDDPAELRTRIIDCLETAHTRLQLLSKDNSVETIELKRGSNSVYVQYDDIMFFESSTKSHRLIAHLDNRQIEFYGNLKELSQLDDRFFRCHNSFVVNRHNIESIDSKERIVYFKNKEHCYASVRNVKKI

CCCCCCc1cc(C(=O)COc2ccc(F)cc2F)c(O)cc1O [4f-12]
improvement of wound healing compared to untreated control (MRSA USA300 [1]): 79.4% | bacterial burden of the wound vs untreated control (MRSA USA300 [1]): no significant difference in the bacterial burden | inhibition of formation of the AgrA-promoter P3 complex (EMSA) (AgrA-P3 complex): inhibit binding of AgrA to its cognate DNA | inhibition of formation of the AgrA-promoter P3 complex (EMSA) (AgrA-P3 complex; listed as F12): inhibit the formation of the AgrA-promoter P3 complex | survival of larvae in the absence of bacteria [2]: 80%

CC(=O)OCC1=C(C(=O)O)N2C(=O)[C@@H](NC(=O)Cc3cccs3)[C@H]2SC1 [Cephalothin, cephalothin]
tissue burden of the wound, average log CFUs ± standard deviation (MRSA USA300 [1]): 7.54±0.4 log CFU | minimum inhibitory concentration (MIC), antibiotic Alone (MRSE Q-15): 64 | minimum inhibitory concentration (MIC), With F19 (1 μg/mL) (MRSE Q-15): 3 | minimum inhibitory concentration (MIC), antibiotic Alone (MRSA USA300 [3]; MRSA USA300): 58 µg/mL (≈ 146 µM) | MIC (MRSA USA300 [3]): 2 µg/mL (≈ 5.04 µM) | bacterial burden in blood compared to F19-treated animals (MRSA USA300 [4]; 30 mg/kg IP twice daily): approximately the same bacterial burden levels

C[C@H]1[C@H](NC(=O)/C(=N\OC(C)(C)C(=O)O)c2csc(N)n2)C(=O)N1S(=O)(=O)O [Aztreonam]
minimum inhibitory concentration (MIC), antibiotic Alone [5]: 256 | minimum inhibitory concentration (MIC), With F19 (10 μg/mL) [5]: <0.1

CN[C@H](CC(C)C)C(=O)N[C@H]1C(=O)N[C@@H](CC(N)=O)C(=O)N[C@H]2C(=O)N[C@H]3C(=O)N[C@H](C(=O)N[C@H](C(=O)O)c4cc(O)cc(O)c4-c4cc3ccc4O)[C@H](O)c3ccc(c(Cl)c3)Oc3cc2cc(c3O[C@@H]2O[C@H](CO)[C@@H](O)[C@H](O)[C@H]2O[C@H]2C[C@](C)(N)[C@H](O)[C@H](C)O2)Oc2ccc(cc2Cl)[C@H]1O [Vancomycin, vancomycin]
tissue burden of the wound, average log CFUs ± standard deviation (MRSA USA300 [1]): 6.96±0.3 log CFU | bacterial load in blood compared to the F19-cephalothin treatment (MRSA USA300 [4]; 30 mg/kg IP twice daily): almost two orders of magnitude lower | surviving mice (of ten per group) (MRSA USA300 [4]; 30 mg/kg IP twice daily for 7 days, lethal dose 1.6×10^10 CFUs): all survived | mean bacterial load in blood compared to vehicle-treated animals (MRSA USA300 [4]; 30 mg/kg IP twice daily, day 6): four orders of magnitude lower

CC(C)(O/N=C(\C(=O)N[C@@H]1C(=O)N2C(C(=O)[O-])=C(C[n+]3ccccc3)CS[C@H]12)c1csc(N)n1)C(=O)O [Cefazidime]
minimum inhibitory concentration (MIC), antibiotic Alone [5]: 32 | minimum inhibitory concentration (MIC), With F19 (10 μg/mL) [5]: <0.1

CCCCCCc1cc(C(=O)COc2cccc(F)c2)c(O)cc1O [4f-1]
improvement of wound healing compared to untreated control (MRSA USA300 [1]): 46.6% | bacterial burden of the wound vs untreated control (MRSA USA300 [1]): no significant difference in the bacterial burden | inhibition of formation of the AgrA-promoter P3 complex (EMSA) (AgrA-P3 complex; listed as F1): inhibit the formation of the AgrA-promoter P3 complex

CCOc1ccc2ccccc2c1C(=O)N[C@@H]1C(=O)N2[C@@H]1SC(C)(C)[C@@H]2C(=O)O [Nafcillin]
minimum inhibitory concentration (MIC), antibiotic Alone (MRSA USA300 [3]; MRSA USA300): 60 µg/mL (≈ 145 µM) | MIC (MRSA USA300 [3]): 1 µg/mL (≈ 2.41 µM) | minimum inhibitory concentration (MIC), antibiotic Alone (Streptococcus pyogenes; alone): 25 | minimum inhibitory concentration (MIC), With F19 (1 μg/mL) (Streptococcus pyogenes; with F19 1 μg/mL): 10

Penicillin
minimum inhibitory concentration (MIC), antibiotic Alone (MRSE Q-15): 174 | minimum inhibitory concentration (MIC), With F19 (1 μg/mL) (MRSE Q-15): 34 | minimum inhibitory concentration (MIC), antibiotic Alone (MRSA USA300 [3]; MRSA USA300): 135 µg/mL | minimum inhibitory concentration (MIC), With F19 (1 μg/mL) (MRSA USA300 [3]; MRSA USA300, with F19 1 μg/mL): 18 µg/mL
